# Assay results: patent US7425557B2, “Inhibitors of glycogen synthase kinase 3” (Novartis Vaccines and Diagnostics, Inc., priority 1998, dated 2008)
# Biological target: human GSK3β (Homo sapiens, UniProt P49841)
# Experiment: Screening for GSK3 inhibitory activity using a cell-free assay
# Assay type: biochemical
# Conditions: read-out: IC50 with respect to GSK3
# Procedure: This amount represents the amount of radiolabeled phosphate incorporated into the peptide substrate.
# The captured radiolabeled peptide substrate can be quantitated in a scintillation counter using known methods. […] If an inhibitor is present during the reaction, GSK3 activity will be reduced, and a smaller quantity of radiolabeled phosphate will thus be incorporated into the peptide substrate.
# Pyrimidine and pyridine compounds of the present invention were dissolved in DMSO, then tested for inhibition of human GSK3β (the nucleotide sequence for human GSK3β appears in GenBank under Accession No. L33801).
# While the reaction was proceeding, streptavidin-coated Labsystems “Combiplate 8” capture plates (Labsystems, Helsinki, Finland) were blocked by incubating them with 300 μl/well of PBS containing 1% bovine serum albumin for at least one hour at room temperature. The blocking solution was then removed by aspiration, and the capture plates were filled with 100 ul/well of stopping reagent (50 μM ATP/20 mM EDTA).
# When the three hour enzyme reaction was finished, triplicate 100 μl aliquots of each reaction mix were transferred to three wells containing stopping solution, one well on each of the three capture plates, and the well contents were mixed well. […] Finally, 200 μl of Microscint-20 scintillation fluid was added to each well of the plate. The plates were coated with plate sealers, then left on a shaker for 30 minutes. Each capture plate was counted in a Packard TopCount scintillation counter (Meridian, Conn.) and the results were plotted as a function of compound concentration.
# Chain of human GSK3β (P49841 whole entry): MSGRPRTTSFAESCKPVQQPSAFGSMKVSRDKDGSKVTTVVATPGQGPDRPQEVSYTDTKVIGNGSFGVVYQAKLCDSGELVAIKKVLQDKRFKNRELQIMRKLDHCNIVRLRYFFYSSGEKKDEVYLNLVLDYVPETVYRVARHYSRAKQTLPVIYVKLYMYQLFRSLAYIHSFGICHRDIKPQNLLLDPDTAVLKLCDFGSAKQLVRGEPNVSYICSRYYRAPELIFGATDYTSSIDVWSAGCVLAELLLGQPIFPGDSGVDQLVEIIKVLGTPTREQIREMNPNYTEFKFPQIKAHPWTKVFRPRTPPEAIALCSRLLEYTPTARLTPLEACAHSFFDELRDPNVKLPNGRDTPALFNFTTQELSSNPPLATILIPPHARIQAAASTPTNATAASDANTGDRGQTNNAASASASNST
row,SMILES,IC50 [nM]
1,c1ccc(NCCNc2nccc(-c3cccnc3)n2)nc1 [[2-(2-pyridylamino)ethyl](4-(3-pyridyl)pyrimidin-2-yl)amine],≤ 10000
2,O=C(NCc1cccc(Br)c1)c1ccc(-c2ccnc(NCCNc3ccc(C(F)(F)F)cn3)n2)cc1 [N-[(3-bromophenyl)methyl](4-{2-[(2-{[5-(trifluoromethyl)(2-pyridyl)]amino}ethyl)amino]pyrimidin-4-yl}phenyl)-carboxamide],≤ 10000
3,CCOC(=O)c1cnc(NCCNc2ccc([N+](=O)[O-])cn2)nc1-c1cccc(F)c1 [ethyl 4-(3-fluorophenyl)-2-({2-[(5-nitro(2-pyridyl))amino]ethyl}amino)pyrimidine-5-carboxylate],≤ 10000
4,"O=C(NCC(c1ccccc1)c1ccccc1)c1ccc(-c2ccnc(NCCNc3ccc([N+](=O)[O-])cn3)n2)cc1 [N-(2,2-diphenylethyl){4-[2-({2-[(5-nitro(2-pyridyl))amino]ethyl}amino)pyrimidin-4-yl]phenyl}carboxamide]",≤ 10000
5,CCOC(=O)c1c(CC)nc(NCCCNc2ccc([N+](=O)[O-])cn2)nc1-c1ccc(C(N)=O)cc1 [ethyl 4-(4-carbamoylphenyl)-6-ethyl-2-({3-[(5-nitro(2-pyridyl))amino]propyl}amino)pyrimidine-5-carboxylate],≤ 10000
6,"CCOC(=O)c1cnc(NCCNc2ccc([N+](=O)[O-])cn2)nc1-c1ccc(F)cc1F [ethyl 4-(2,4-difluorophenyl)-2-({2-[(5-nitro(2-pyridyl))amino]ethyl}amino)pyrimidine-5-carboxylate]",≤ 10000
7,COCCNC(=O)c1ccc(-c2ccnc(NCCNc3ccc([N+](=O)[O-])cn3)n2)cc1 [N-(2-methoxyethyl){4-[2-({2-[(5-nitro(2-pyridyl))amino]ethyl}amino)pyrimidin-4-yl]phenyl}carboxamide],≤ 10000
8,O=C(NCc1ccccc1)c1ccc(-c2ccnc(NCCc3ccccn3)n2)cc1 [N-benzyl(4-{2-[(2-(2-pyridyl)ethyl)amino]pyrimidin-4-yl}phenyl)carboxamide],≤ 10000
9,"O=C(NCCc1ccc(Cl)cc1Cl)c1ccc(-c2ccnc(NCCNc3ccc([N+](=O)[O-])cn3)n2)cc1 [N-[2-(2,4-dichlorophenyl)ethyl]{4-[2-({2-[(5-nitro(2-pyridyl))amino]ethyl}-amino)pyrimidin-4-yl]phenyl}carboxamide]",≤ 10000
10,NC(=O)c1ccc(-c2ccnc(NCCOc3ccccc3)n2)cc1 [4-{2-[(2-phenoxyethyl)amino]pyrimidin-4-yl}benzamide],≤ 10000
11,"O=C(NCc1cc(Cl)cc(Cl)c1)c1ccc(-c2ccnc(NCCNc3ccc([N+](=O)[O-])cn3)n2)cc1 [N-[(3,5-dichlorophenyl)methyl]{4-[2-({2-[(5-nitro(2-pyridyl))amino]ethyl}amino)pyrimidin-4-yl]phenyl}carboxamide]",≤ 10000
12,NC(=O)c1ccc(-c2ccnc(NCCc3ccc([N+](=O)[O-])cc3)n2)cc1 [4-(2-{[2-(4-nitrophenyl)ethyl]amino}pyrimidin-4-yl)benzamide],≤ 10000
13,COc1cccc(CCNc2nccc(-c3ccc(C(N)=O)cc3)n2)c1 [4-(2-{[2-(3-methoxyphenyl)ethyl]amino}pyrimidin-4-yl)-benzamide],≤ 10000
14,O=[N+]([O-])c1ccc(NCCNc2ncc(-c3ncc[nH]3)c(-c3ccc(Br)cc3Cl)n2)nc1 [[4-(4-bromo-2-chlorophenyl)-5-imidazol-2-ylpyrimidin-2-yl]{2-[(5-nitro(2-pyridyl))amino]ethyl}amine],≤ 1000
15,CCOC(=O)c1cnc(NCCNc2ccc([N+](=O)[O-])cn2)nc1-c1ccc(S(C)(=O)=O)cc1 [ethyl 4-[4-(methyl-sulfonyl)phenyl]-2-({2-[(5-nitro(2-pyridyl))amino]ethyl}amino)pyrimidine-5-carboxylate],≤ 1000
16,"N#Cc1cnc(NCCNc2ccc([N+](=O)[O-])cn2)nc1-c1ccc(Cl)c(Cl)c1 [4-(3,4-dichlorophenyl)-2-({2-[(5-nitro(2-pyridyl))amino]ethyl}amino)pyrimidine-5-carbonitrile]",≤ 10000
17,"NC(=O)c1ccc(-c2ccnc(NCCCOc3ccc(Cl)c(Cl)c3)n2)cc1 [4-(2-{[3-(3,4-dichlorophenoxy)-propyl]amino}pyrimidin-4-yl)benzamide]",≤ 10000
18,N#Cc1ccc(-c2nc(NCCNc3ccc([N+](=O)[O-])cn3)ncc2-c2ncc[nH]2)cc1 [4-[5-imidazol-2-yl-2-({2-[(5-nitro(2-pyridyl))amino]ethyl}amino)pyrimidin-4-yl]benzenecarbonitrile],≤ 1000
19,COc1cccc(CNC(=O)c2ccc(-c3ccnc(NCCNc4ccc([N+](=O)[O-])cn4)n3)cc2)c1 [N-[(3-methoxyphenyl)methyl]{4-[2-({2-[(5-nitro(2-pyridyl))amino]ethyl}amino)pyrimidin-4-yl]phenyl}carboxamide],≤ 1000

# Now from value to molecule:
row,IC50 [nM],SMILES
1,≤ 1000,"COc1nc(NCCNc2ncc(-c3ncc[nH]3)c(-c3ccc(Cl)cc3Cl)n2)ccc1[N+](=O)[O-] [[4-(2,4-dichlorophenyl)-5-imidazol-2-ylpyrimidin-2-yl]{2-[(6-methoxy-5-nitro(2-pyridyl))amino]ethyl}amine]"
2,≤ 1000,CCOC(=O)c1cnc(NCCNc2ccc([N+](=O)[O-])cn2)nc1-c1ccc(OC)cc1 [ethyl 4-(4-methoxyphenyl)-2-({2-[(5-nitro(2-pyridyl))amino]ethyl}amino)pyrimidine-5-carboxylate]
3,≤ 1000,"O=[N+]([O-])c1ccc(NCCN(CCN2CCOCC2)c2ncc(-n3ccnc3)c(-c3ccc(Cl)cc3Cl)n2)nc1 [[4-(2,4-dichlorophenyl)-5-imidazolylpyrimidin-2-yl](2-morpholin-4-ylethyl){2-[(5-nitro(2-pyridyl))amino]ethyl}amine]"
4,≤ 1000,CCOC(=O)c1cnc(NCCNc2ccc([N+](=O)[O-])cn2)nc1-c1ccc(F)cc1 [ethyl 4-(4-fluorophenyl)-2-({2-[(5-nitro(2-pyridyl))amino]ethyl}amino)pyrimidine-5-carboxylate]
5,≤ 1000,Nc1nc(NCCNc2ncc(N3C(=O)c4cccnc4C3=O)c(-c3ccc(Cl)cc3Cl)n2)ccc1[N+](=O)[O-]
6,≤ 1000,N#Cc1ccc(NCCNc2nccc(-c3ccc(C(N)=O)cc3)n2)nc1 [4-[2-({2-[(5-cyano-2-pyridyl)amino]-ethyl}amino)pyrimidin-4-yl]benzamide]
7,≤ 1000,CCOC(=O)c1cnc(NCCNc2ccc([N+](=O)[O-])cn2)nc1-c1ccc(OC(F)(F)F)cc1
8,≤ 1000,NC(=O)c1ccc(-c2ccnc(NCCCNc3ccc([N+](=O)[O-])cn3)n2)cc1 [4-[2-({3-[(5-nitro-2-pyridyl)amino]propyl}amino)pyrimidin-4-yl]benzamide]
9,≤ 1000,N#Cc1ccc(-c2nc(NCCNc3ccc([N+](=O)[O-])cn3)ncc2C(=O)NC(CO)C(N)=O)cc1 (stereo not shown) [N-(1-carbamoyl-2-hydroxyethyl)[4-(4-cyanophenyl)-2-({2-[(5-nitro(2-pyridyl))-amino]ethyl}amino)pyrimidin-5-yl]carboxamide]
10,≤ 1000,N#Cc1ccc(-c2nc(NCCNc3ccc([N+](=O)[O-])cn3)ncc2C(=O)OCCO)cc1 [2-hydroxyethyl 4-(4-cyanophenyl)-2-({2-[(5-nitro(2-pyridyl))-amino]ethyl}amino)pyrimidine-5-carboxylate]
11,≤ 1000,"Cc1cn(-c2cnc(NCCNc3ccc([N+](=O)[O-])cn3)nc2-c2ccc(Cl)cc2Cl)c(C)n1 [[4-(2,4-dichlorophenyl)-5-(2,4-dimethylimidazolyl)pyrimidin-2-yl]{2-[(5-nitro(2-pyridyl))amino]ethyl}amine]"
12,≤ 1000,CN(C)CCOC(=O)Nc1cnc(NCCNc2ccc([N+](=O)[O-])cn2)nc1-c1ccc(C#N)cc1 [[2-(dimethyl-amino)ethoxy]-N-[4-(4-cyanophenyl)-2-({2-[(5-nitro(2-pyridyl))amino]ethyl}amino)-pyrimidin-5-yl]carboxamide]
13,≤ 1000,O=C(O)c1c(-c2ccc([N+](=O)[O-])cc2)nc(NCCNc2ccc([N+](=O)[O-])cn2)nc1-c1cccc(O)c1 [4-(3-hydroxyphenyl)-2-({2-[(5-nitro(2-pyridyl))amino]ethyl}amino)-6-(4-nitrophenyl)pyrimidine-5-carboxylic acid]
14,≤ 1000,N#Cc1ccc(NCCNc2ncc(-c3ncc[nH]3)c(-c3ccc(Br)cc3Cl)n2)nc1 [6-[(2-{[4-(4-bromo-2-chlorophenyl)-5-imidazol-2-ylpyrimidin-2-yl]amino}ethyl)amino]pyridine-3-carbonitrile]
15,≤ 1000,CCCCNC(=O)c1cnc(NCCNc2ccc([N+](=O)[O-])cn2)nc1-c1ccc(C#N)cc1 [N-butyl[4-(4-cyanophenyl)-2-({2-[(5-nitro(2-pyridyl))amino]ethyl}amino)pyrimidin-5-yl]carboxamide]
16,≤ 1000,"CN(C)CCN(CCNc1ccc([N+](=O)[O-])cn1)c1ncc(-n2ccnc2)c(-c2ccc(Cl)cc2Cl)n1 [[4-(2,4-dichlorophenyl)-5-imidazolylpyrimidin-2-yl][2-(dimethylamino)ethyl]{2-[(5-nitro(2-pyridyl))amino]ethyl}amine]"
17,≤ 1000,O=[N+]([O-])c1ccc(NCCNc2ncc(-n3cccn3)c(-c3ccc(Cl)cc3Cl)n2)nc1
18,≤ 1000,CCOC(=O)c1cnc(NCCNc2ccc([N+](=O)[O-])cn2)nc1-c1ccc(Br)cc1 [ethyl 4-(4-bromophenyl)-2-({2-[(5-nitro(2-pyridyl))amino]ethyl}amino)pyrimidine-5-carboxylate]
